Legend:
LDLR-silenced GBM cells = experiment: WST1 assay and immunoblot in LDLR-silenced (shLDLR) GBM cells; format: cell-based, human
Text: FIGS. 20A and 20B show the results that downregulation of LDLR restores inhibition of autophagy and cell viability. […] The expressions of LDLR, LC3B, SQSTM1, and pro/active CTSB were detected by immunoblot analysis. GAPDH was used as a loading control. […] Data shown represent the means of quintuplicate measurements which were repeated three times. The results are presented as a percentage of control (means±SD).
shRNA sequences against LDLR were cloned into a lentiviral vector. For the production of lentivirus, the vectors were co-transfected with psPAX2 and pMD2.G in 293T cells using Lipofectamine 3,000 (Invitrogen). Then, the cultured medium was harvested. The viral supernatant was applied to GBMs and cells were selected in puromycin for 3 additional days. The shRNA sequence was as follows. shLDLR sequence: 5′-CCACTTGTAGGAGATGCAT-3′ (SEQ ID NO: 7).
The present inventors hypothesized that the enhanced expression of LDLR and uptake of exogenous cholesterol by PD may promote accumulation of cholesterol in lysosomes and contribute to PD-mediated inhibition of autophagy and cell viability in GBM cells. To this end, the expression of LDLR gene was silenced in GBM cells using lentiviral shRNA transduction.

[1] = tested on: A549, H358, MCF7, HT29 and HepG2 cells; experiment: Immunoblot of LC3B and SQSTM1 in several cancer cell lines; format: cell-based; settings: 24 hours, dose-dependent, all cancer cells tested
Method: After treatment with indicated concentrations of PD or PG for 24 hours, the protein levels of LC3B and SQSTM1 were detected by immunoblot analysis in several cancer cell lines including A549 and H358 (lung cancer), MCF7 (breast cancer), HT29 (colon cancer), and HepG2 (liver cancer). GAPDH was used as a loading control.
(§1) Cells treated with the concentrations and materials described in FIGS. 1-3B, 7, 8, 10, 13, 16, 18, and 20 were lysed in buffer containing 20 mM Tris-HCl (pH 7.5), 150 mM NaCl, 1 mM EDTA, 1 mM Na2EDTA, 1 mM EGTA, 1% NP-40, 1% sodium deoxycholate, 1 mM Na3VO4, 1 mM MPI, 1 mM PMSF, and PI cocktails for 15 to 20 minutes on ice. Cell lysates were separated by SDS-PAGE and transferred to nitrocellulose membranes. Immunodetection was performed with the following primary antibodies: rabbit anti-LC3B, rabbit anti-cathepsin B, rabbit-anti GAPDH (Cell Signaling Technology, Danvers, Mass.), mouse anti-SQSTM1/p62, and goat anti-cathepsin D (Santa CruzKPL, Gaithersburg, Md., USA) were incubated at room temperature for 1 hour. The protein bands were detected with ECL western Blotting Substrate (Thermo Fisher Scientific, Waltham, Mass., USA).
In these studies, they were carried out to examine the accumulation of LC3B-II without checking p62 levels upon PD treatment and conclusions were drawn that PD acts as an inducer of autophagic cell death in these cancer cells. […]

cathepsin B and D = experiment: Immunoblot of cathepsin B and D processing in GBM cells; format: cell-based, human; settings: PD 5 μM and 10 μM, 48 hours
Method: Immunoblot analyses for the processing of endogenous CTSB and CTSD are shown (upper, immature form/lower, mature form of CTSB and CTSD). GAPDH was used as a loading control.
as §1
To confirm whether PD functions as an autophagy inhibitor, the effects of PD on lysosomal proteases, cathepsin B and D, were examined Autophagy is a lysosome-mediated and self-degradative process that requires lysosomal cysteine proteases known as cathepsins. Since pro-cathepsins are cleaved into a mature form in lysosomes, the 33 kD active cleaved form of cathepsins has been commonly used as a marker for lysosomal activity. As can be confirmed in FIG. 13, while the mature forms of cathepsin B and D proteins were decreased, immature forms of those protein were increased after PD treatment in U87MG and U373MG cells, implying that PD suppresses a lysosomal function by downregulating the lysosomal proteolytic activity.

U87MG and U373MG cells = experiment: Cholesterol measurement (total cholesterol assay kit) in GBM cells; format: cell-based, human; settings: PD 10 μM or U18666a 1 μM, 24 hours
Method: FIGS. 15A and 15B show the results that PD promotes accumulation of cholesterol in lysosomes. Cells were treated with DMSO, PD (10 μM), or U18666a (1 μM) for 24 hours. […] Total cholesterol levels are expressed in cholesterol (μg) per protein (mg) of cell lysate and are shown as means±SD from two independent experiments.
Cells treated as described above were processed using a total cholesterol assay kit (STA384, Cell Biolabs) according to the manufacterer's instructions. Cholesterol esters and free cholesterol were quantified by homogenizing 10^6 cells extracted from a 200 μL mixture of chloroform: isopropanol: NP-40 (7:11:0.1). After centrifugation of the extract at 15,000× g for 10 minutes, the organic phase was collected and evaporated at 50° C. The extract was resuspended in 200 μL of a 1× cholesterol assay diluent prior to analysis. The colorimetric signal was analyzed using an ELISA reader (Versa Max, Molecular Devices, Sunnyvale, Calif., USA) at 540 nm. Cellular cholesterol results were reported as μg of cholesterol per mg of cell protein.

normal astrocytes = experiment: BODIPY FL LDL uptake assay, normal astrocytes; format: cell-based, human; settings: PD 10 μM or U18 1 μM, 24 hours
Method: Cells were treated with DMSO, PD (10 μM), or U18 (1 μM) for 24 hours and subsequently loaded with BODIPY™ FL LDL. BODIPY-LDL uptake was visualized by confocal microscopy. Nuclei were stained with DAPI (blue). Quantification shown on the right graph represents a relative fold change from three independent experiments±SD.
Cells seeded on coverslips were treated with the materials and then the culture medium was replaced with BODIPY™ FL LDL (Thermo Fisher Scientific) at a working concentration of 5 μg/mL in a medium. The cells were additionally incubated at 37° C. for 1 hour. The degree of LDL uptake was measured using a Zeiss laser confocal microscope.
Based on the previous study results of the present inventors that PD increases cell surface LDLR expression and accumulate cholesterol within lysosomes, whether PD can increase the uptake of exogenous LDL was examined Cells pretreated with PD or U18666A were incubated with BODIPY FL-labeled LDL particles for 1 hour and the LDL uptake was observed by a confocal microscope. Upon analysis of these cells, it was observed that PD caused about a 6-fold increase in LDL uptake and it was a level similar to that detected in the U18666A-treated cells.

## C[C@@H]1O[C@@H](O[C@H]2[C@H](OC(=O)[C@]34CCC(C)(C)C[C@H]3C3=CC[C@@H]5[C@@]6(C)C[C@H](O)[C@H](O[C@@H]7O[C@H](CO)[C@@H](O)[C@H](O)[C@H]7O)C(CO)(CO)[C@@H]6CC[C@@]5(C)[C@]3(C)C[C@H]4O)OC[C@H](O)[C@@H]2O)[C@H](O)[C@H](O)[C@H]1O[C@@H]1OC[C@@H](O)[C@H](O[C@@H]2OC[C@](O)(CO)[C@H]2O)[C@H]1O [PD, platycodin D]
LDLR-silenced GBM cells; LDLR-silenced GBM cells, PD 10 μM or 20 μM, WST1
  reduction of cell viability: less effective
LDLR-silenced GBM cells; knockdown of LDLR, PD 5 μM or 10 μM, 24 hours, immunoblot
  LC3-II, p62 and cathepsin B response to PD: prevented the upregulation of LC3-II and p62 as well as the inactivation of cathpsin B
[1]
  level of p62 together with LC3-II: enhanced level
Cathepsin B and D
  immature forms of cathepsin B and D proteins: increased
  mature forms of cathepsin B and D proteins: decreased
U87MG and U373MG cells
  free cholesterol levels: significant increase
Normal astrocytes
  LDL uptake: less effective
